Source: patent publication US20100272824A1, “COMPOSITIONS AND METHODS FOR PREVENTING AND MONITORING DISEASE” (The Texas A&M University System, priority 2009, published 2010)

Test system: colonocytes
Assay: In situ apoptosis (TUNEL assay), apoptotic index
Format: in vivo, rat
Details: pectin intake compared to cellulose intake, ACF/promotion stage, radiation study
Protocol: Apoptosis was measured by the binding of TdT-mediated UTP-biotin nick end labeling (TUNEL assay) to fragmented pieces of DNA using sections (4 μm) of PFA-fixed, paraffin-embedded tissue. Apoptotic cells with condensed chromatin, apoptotic bodies and intense brown staining were counted in 50 crypt columns for each animal. The apoptotic index is 100 times the mean number of apoptotic cells per crypt column divided by the total number of cells per crypt column. Chang et al., “Predictive value of proliferation, differentiation and apoptosis as intermediate markers for colon tumorigenesis” Carcinogenesis 18:721-730 (1997).
Data were analyzed using ANOVA to determine the effect of diet (FO/P vs. CO/C) on apoptosis, high multiplicity ACF, and proliferative zone (SAS Institute Inc.). Colon tumor incidence was analyzed by Chi square analysis and reported as percentage of rats bearing tumors (SAS Institute Inc.).

Substance: pectin
- apoptosis: induced apoptosis
- apoptosis (listed as Pectin): induced the levels of apoptosis
